Where two headings read alike, the source gives them in different places.
Tests used:
[1] = estimated melting point temperature ranges of candidate organic compounds (Table 2); some compounds have several values, partly in parentheses, because analytic techniques differ; cited from earlier work

| Compound | Melting Point | Melting Point [1] |
| --- | --- | --- |
| Nc1ccn(C2C=CC(N)C(C(=O)O)O2)c(=O)n1 (stereo not drawn) [Example 35] | 244 to 245 °C | 244-245° ° C. |
| O=Cc1c2ccccc2c(C=O)c2ccccc12 [Example 37] | 244 to 245 °C | 244-245° ° C. |
| Nc1nc(N)nc(Cc2ccccc2)n1 [Example 39] | 245 °C | 245° ° C. |
| Cn1cnc2ncn(C)c2c1=O [Example 41] | 245 to 246 °C | 245-246° ° C. |
| O=c1[nH][nH]c2ccccc12 [Example 44] | 245 to 247 °C | 245-247° ° C. |
| CC1(C)Oc2ccc(C#N)cc2[C@H](n2ccccc2=O)[C@H]1O [Example 45] | 245 to 246 °C | 245-246° ° C. |
| Nc1ccc2c(c1)[nH]c1ccccc12 [Example 47] | 245 to 247 °C | 245-247° ° C. |
| Nc1nnc2ccccn12 [Example 48] | 245 to 247 °C | 245-247° ° C. |
| c1cc2n[nH]nc2cn1 [Example 50] | 246 to 247 °C | 246-247° ° C. |
| Cc1c(C)c(CO)c(C)c(C)c1CO [Example 51] | 246 to 248 °C | 246-248° ° C. |
| c1ccc2c(c1)-c1ccccc1C2C1c2ccccc2-c2ccccc21 [Example 56] | 246 °C | 246° ° C. |
| C#C/C=C/C1C(O)CCCC12CCCC(CCCC#C)N2 (stereo not drawn) [Example 60] | 247 to 250 °C | 247-250° ° C. |
| CCNC(=O)c1cc2c(cn1)[nH]c1ccccc12 [Example 61] | 247 to 249 °C | 247-249° ° C. |
| Oc1cc2c3ccccc3ccc2c2ccccc12 [Example 68] | 248 to 250 °C | 248-250° ° C. |
| c1ccc(-c2nc(-c3ccccc3)c(-c3ccccc3)nc2-c2ccccc2)cc1 [Example 69] | 248 °C | 248° ° C. |
| c1ccc2nc3nccnc3nc2c1 [Example 71] | 249 °C | 249° ° C. |
| NNc1ccc(C(N)=O)nn1 [Example 72] | 249 to 250 °C | 249-250° ° C. |
| O=[N+]([O-])c1ccc(NN=Cc2ccccc2Cl)cc1 [Example 73] | 249 °C | 249° ° C. |
| O=C(C=Cc1ccccc1)NCCCCNC(=O)C=Cc1ccccc1 [Example 74] | 249 to 253 °C | 249-253° ° C. |
| Nc1cccc2sc3ccccc3c(=O)c12 [Example 75] | 249 to 250 °C | 249-250° ° C. |
| c1nc2nc3nc[nH]cc3n2n1 [Example 77] | 250 °C | 250° ° C. |
| CN1Cc2cc(C3=NNC(=O)CC3)ccc2NC1=O [Example 79] | 250 °C | 250° ° C. |
| CN(C)c1ccc(C(C)(C)C)cc1 [Example 82] | 250 to 253 °C | 250-253° ° C. |
| CC(=O)Nc1cc2ccccc2c2ccc3ccccc3c12 [Example 83] | 250 to 251 °C | 250-251° ° C. |

| Compound | Melting Point | Melting Point [1] |
| --- | --- | --- |
| NC(=O)C1c2ccccc2-c2ccccc21 [Example 86] | 251 °C | 251° ° C. |
| Cc1cc2[nH]c3ccccc3c2cc1C [Example 87] | 251 to 253 °C | 251-253° ° C. |
| C(#Cc1c2ccccc2c(C#Cc2ccccc2)c2ccccc12)c1ccccc1 [Example 88] | 251 to 253 °C | 251-253° ° C. |
| O=c1ccc2ncc[nH]c-2c1 [Example 90] | 252 to 254 °C | 252-254° ° C. |
| O=C1CCc2c1[nH]c1ccccc21 [Example 95] | 252 to 252.5 °C | 252-252.5° ° C. |
| O=c1[nH]c(=S)oc2ccccc12 [Example 98] | 253 °C | 253° ° C. |
| c1ccc2c(c1)[nH]c1ccc3cnccc3c12 [Example 99] | 254 to 255 °C | 254-255° ° C. |
| Oc1c2ccc3ccccc3c2cc2ccc3ccccc3c12 [Example 101] | 254 to 256 °C | 254-256° ° C. |
| Oc1ccc2cc3ccccc3cc2c1 [Example 103] | 254 °C | 254° ° C. |
| Nc1nc2c([N+](=O)[O-])cccc2s1 [Example 105] | 254 °C | 254° ° C. |
| CC1(C)CNC(=O)NC1 [Example 107] | 255 to 257 °C | 255-257° ° C. |
| N#Cc1ccc2c(=O)c3ccccc3sc2c1 [Example 110] | 255 to 256 °C | 255-256° ° C. |
| Oc1ccc(-c2cnc(-c3cccnc3)o2)cc1 [Example 115] | 255 to 256 °C | 255-256° ° C. |
| CN1CC2CC(NC(=O)c3n[nH]c4ccccc34)CC(C1)N2C (stereo not drawn) [Example 118] | 256 to 257 °C | 256-257° ° C. |
| c1ccc(-c2ccnc(-c3cc(-c4ccccc4)cc(-c4cc(-c5ccccc5)ccn4)n3)c2)cc1 [Example 122] | 257 to 258 °C | 257-258° ° C. |
| NC1=NCCC(CC(N)C(=O)O)N1 (stereo not drawn) [Example 124] | 258 to 259 °C | 258-259° ° C. |
| CC(=O)Nc1cnn2c(C)nc3ccccc3c12 [Example 125] | 258 to 260 °C | 258-260° ° C. |
| O=[N+]([O-])c1nc2ccccc2[nH]1 [Example 127] | 258 °C | 258° ° C. |
| c1cnc2[nH]cnc2n1 [Example 128] | 258 to 259 °C | 258-259° ° C. |
| COc1cc(CCN(C)C)ccc1O [Example 129] | 258 to 260 °C | 258-260° ° C. |
| Oc1cc2ccccc2c2cc3ccc4ccccc4c3cc12 [Example 130] | 258 to 259 °C | 258-259° ° C. |
| c1ccc2c(c1)[nH]c1ccc3ccncc3c12 [Example 132] | 259 to 260 °C | 259-260° ° C. |
| CCN(CCCCN)c1ccc2c(=O)[nH][nH]c(=O)c2c1 [Example 136] | 259 to 260 °C | 259-260° ° C. |
| O=c1c(=C2Cc3cccc4cccc2c34)c2cccc3cccc1c32 [Example 137] | 259 to 260 °C | 259-260° ° C. |

| Compound | Melting Point | Melting Point [1] |
| --- | --- | --- |
| O=c1cc2oc3ccccc3oc-2cc1=O [Example 138] | 260 to 261 °C | 260-261° ° C. |
| O=c1ccc2c(cc3ccc4cccc5ccc2c3c45)c1=O [Example 139] | 260 °C | 260° ° C. |
| O=C1C=Cc2c(ccc3c2ccc2ccccc23)C1=O [Example 142] | 260 to 261 °C | 260-261° ° C. |
| O=C1C(=O)c2cc3ccccc3cc2-c2ccccc21 [Example 143] | 260 to 262 °C | 260-262° ° C. |
| Cn1ccc(N)nc1=O [Example 145] | 260 to 265 °C | 260-265° ° C. |
| NNc1nnc(Cc2ccncc2)c2ccccc12 [Example 149] | 261 to 264 °C | 261-264° ° C. |
| c1ccc(-c2nc3ncncc3[nH]2)cc1 [Example 150] | 261 to 262 °C | 261-262° ° C. |
| O=c1c2ccccc2oc2nc3ccccc3nc12 [Example 155] | 261 °C | 261° ° C. |
| O=C1c2ccccc2-c2oc(=O)c3ccccc3c21 [Example 156] | 261 to 262 °C | 261-262° ° C. |
| Nc1nnc(N)n1N [Example 158] | 262 to 263 °C | 262-263° ° C. |
| Cc1[nH]nc2c1N(c1ccccc1)C(=O)CC(=O)N2C [Example 159] | 262 °C | 262° ° C. |
| O=C1CC(=O)N(c2ccccc2)C(=O)N1 [Example 160] | 262 °C | 262° ° C. |
| COc1ncnc2nc[nH]c12 [Example 161] | 262 to 263 °C | 262-263° ° C. |
| O=C(O)c1cccc2c1-c1ccc([N+](=O)[O-])cc1C2=O [Example 163] | 262 to 262.5 °C | 262-262.5° ° C. |
| O=c1c2ccccc2[nH]c2c([N+](=O)[O-])cccc12 [Example 164] | 262 °C | 262° ° C. |
| CC(=O)N[C@@H]1CCC[C@H](NC(C)=O)C1 [Example 166] | 262 to 264 °C | 262-264° ° C. |
| NC(=O)C(CC(C(N)=O)C(N)=O)C(N)=O [Example 168] | 263 to 265 °C | 263-265° ° C. |
| Cc1cc(=O)oc2cccc(O)c12 [Example 169] | 263 °C | 263° ° C. |
| O=[N+]([O-])c1c2ccccc2c([N+](=O)[O-])c2ccccc12 [Example 171] | 263 °C | 263° ° C. |
| Oc1cc2cc3c(ccc4ccccc43)cc2c2ccccc12 [Example 173] | 263 to 264 °C | 263-264° ° C. |
| COc1c(O)cc2c(c1OC)-c1ccc(OC)c(=O)cc1C(NC=O)CC2 (stereo not drawn) [Example 175] | 263 to 267 °C | 263-267° ° C. |
| CC(=O)N[C@H]1[C@@H](OCc2ccccc2)O[C@@H]2CO[C@H](c3ccccc3)O[C@H]2[C@@H]1O [Example 176] | 263 to 264 °C | 263-264° ° C. |
| NC(=O)c1c2ccccc2nc2ccccc12 [Example 178] | 263 to 264 °C | 263-264° ° C. |
| O=[N+]([O-])c1ccc(NN=Cc2ccccn2)cc1 [Example 181] | 264 °C | 264° ° C. |
